Experimental data published in patent US10448639B2, “Fungicidal pyrazoles” (FMC CORPORATION, priority 2009, dated 2019).
Like-named read-outs stand apart in the source and are kept apart here.

Legend:
Septoria nodorum = test: Test F: Septoria glume blotch, preventive spray on wheat seedlings, visual disease rating; conditions: for Test F disease control rating / Test F rating (% disease control): 100 = 100% disease control; for Test F disease control rating: 0 = no disease control relative to controls; for pest or weed control at 200 µg/mL: Parastagonospora nodorum, in Triticum aestivum, 192 h
[1] = test system: Puccinia recondita f. sp. tritici; test: Test H: wheat leaf rust, curative spray on inoculated wheat seedlings, visual disease rating; conditions: for Test H disease control rating / Test H rating (% disease control): wheat leaf rust, 100 = 100% disease control; for Test H disease control rating: sprayed after inoculation, 0 = no disease control relative to controls; for pest or weed control at 200 µg/mL: 144 h
[2] = test system: Erysiphe graminis f sp. tritici; test: Test J: wheat powdery mildew, preventive spray on wheat seedlings, visual disease rating; conditions: for Test J disease control rating / Test J rating (% disease control): wheat powdery mildew, 100 = 100% disease control; for Test J disease control rating: sprayed the day before inoculation, 0 = no disease control relative to controls; for pest or weed control at 200 µg/mL: Blumeria graminis, in Triticum aestivum, 192 h
Septoria tritici = test: Test G: wheat leaf blotch, preventive spray on wheat seedlings, visual disease rating; conditions: for Test G disease control rating / Test G rating (% disease control): wheat leaf blotch, 100 = 100% disease control; for Test G disease control rating: sprayed the day before inoculation, 0 = no disease control relative to controls; for pest or weed control at 200 µg/mL: Zymoseptoria tritici, in Triticum aestivum, 504 h
Alternaria solani = test: Test C: tomato early blight, preventive spray on tomato seedlings, visual disease rating; conditions: for Test C disease control rating / Test C rating (% disease control): tomato early blight, 100 = 100% disease control; for Test C disease control rating: 0 = no disease control relative to controls; for pest or weed control at 200 µg/mL: Alternaria solani, in Solanum lycopersicum, 168 h
From the text: General protocol for preparing test suspensions for Tests A-J: the test compounds were first dissolved in acetone in an amount equal to 3% of the final volume and then suspended at the desired concentration (in ppm) in acetone and purified water (50/50 mix by volume) containing 250 ppm of the surfactant Trem® 014 (polyhydric alcohol esters). The resulting test suspensions were then used in Tests A-J. Spraying a 200 ppm test suspension to the point of run-off on the test plants was the equivalent of a rate of 500 g/ha. Unless otherwise indicated, the rating values indicate a 200 ppm test suspension was used. (An asterisk “*” next to the rating value indicates a 40 ppm test suspension was used.)
The test suspension was sprayed to the point of run-off on tomato seedlings. The following day the seedlings were inoculated with a spore suspension of Alternaria solani (the causal agent of tomato early blight) and incubated in a saturated atmosphere at 27° C. for 48 h, and then moved to a growth chamber at 20° C. for 5 days, after which time visual disease ratings were made.

Botrytis cinerea = test: Test B: tomato Botrytis, preventive spray on tomato seedlings, visual disease rating; conditions: for Test B disease control rating / Test B rating (% disease control): tomato Botrytis, 100 = 100% disease control; for Test B disease control rating: 0 = no disease control relative to controls; for pest or weed control at 200 µg/mL: Botrytis cinerea, in Solanum lycopersicum, 120 h
[3] = test system: Puccinia recondita f. sp. tritici; test: Test I: wheat leaf rust, preventive spray on wheat seedlings, visual disease rating; conditions: for Test I disease control rating / Test I rating (% disease control): wheat leaf rust, 100 = 100% disease control; for Test I disease control rating: sprayed the day before inoculation, 0 = no disease control relative to controls; for pest or weed control at 200 µg/mL: 192 h
[4] = Septoria glume blotch on wheat, preventive spray, 0 = no control
[5] = preventive spray, 0 = no control
[6] = Septoria glume blotch, 0 = no control relative to controls
[7] = curative, 0 = no control relative to controls
[8] = 0 = no control relative to controls
[9] = preventive, 0 = no control relative to controls
[10] = read-out: Test F rating (% disease control)
[11] = read-out: Test H rating (% disease control)
[12] = read-out: Test J rating (% disease control)
[13] = read-out: Test G rating (% disease control)
[14] = read-out: Test C rating (% disease control)
[15] = read-out: Test B rating (% disease control)
[16] = read-out: Test I rating (% disease control)

Cc1nn(C)c(Nc2ccc(F)cc2)c1-c1c(Cl)cccc1Cl [compound 337]
Test F disease control rating (Septoria nodorum; Septoria glume blotch on wheat): 0%
Test H disease control rating [1]: 9%
Test J disease control rating [2]: 98%
Test G disease control rating (Septoria tritici): 99%
Test C disease control rating (Alternaria solani): 0%
Test B disease control rating (Botrytis cinerea): 99%
Test I disease control rating [3]: 41%

Cc1nn(C)c(Nc2ncc(F)cc2F)c1-c1c(F)cc(F)cc1F [compound 109]
Test F rating (% disease control) (Septoria nodorum; [4]): 97%
Test H rating (% disease control) ([1]; curative spray, 0 = no control): 99%
Test J rating (% disease control) [2, 5]: 100%
Test G rating (% disease control) (Septoria tritici; [5]): 100%
Test C rating (% disease control) (Alternaria solani; [5]): 99%
Test B rating (% disease control) (Botrytis cinerea; [5]): 100%
Test I rating (% disease control) [3, 5]: 100%

COc1cc(F)c(-c2c(C)nn(C)c2Oc2ccc(Cl)c(F)c2)c(F)c1 [compound 152]
Test F rating (% disease control) (Septoria nodorum; [6]): 87%
Test H rating (% disease control) [1, 7]: 9%
Test J rating (% disease control) [2, 8]: 99%
Test G rating (% disease control) (Septoria tritici; [8]): 99%
Test C rating (% disease control) (Alternaria solani; [8]): 82%
Test B rating (% disease control) (Botrytis cinerea; [8]): 100%
Test I rating (% disease control) [3, 9]: 97%

Cc1nn(C)c(Nc2cnc(Cl)nc2)c1-c1ccc(F)cc1Cl [compound 268]
Test F rating (% disease control) (Septoria nodorum; [6]): 0%
Test H rating (% disease control) [1, 7]: 0%
Test J rating (% disease control) [2, 8]: 0%
Test G rating (% disease control) (Septoria tritici; [8]): 99%
Test C rating (% disease control) (Alternaria solani; [8]): 93%
Test B rating (% disease control) (Botrytis cinerea; [8]): 95%
Test I rating (% disease control) [3, 9]: 74%

Cc1nn(C)c(Oc2ccc(C#N)cc2Cl)c1-c1ccc(Cl)cc1Cl [compound 362]
Test F disease control rating (Septoria nodorum; Septoria glume blotch on wheat): 0%
Test H disease control rating [1]: 0%
Test J disease control rating [2]: 96%
Test G disease control rating (Septoria tritici): 100%
Test C disease control rating (Alternaria solani): 0%
Test B disease control rating (Botrytis cinerea): 100%
Test I disease control rating [3]: 96%

Cc1nn(C)c(Nc2ccc(C#N)cc2F)c1-c1c(F)cc(F)cc1F [compound 120]
Test F rating (% disease control) (Septoria nodorum; [4]): 94%
Test H rating (% disease control) ([1]; curative spray, 0 = no control): 0%
Test J rating (% disease control) [2, 5]: 99%
Test G rating (% disease control) (Septoria tritici; [5]): 100%
Test C rating (% disease control) (Alternaria solani; [5]): 99%
Test B rating (% disease control) (Botrytis cinerea; [5]): 100%
Test I rating (% disease control) [3, 5]: 99%

Cc1nn(C)c(Oc2ccc(Cl)cc2)c1-c1c(F)cc(F)cc1F [compound 27]
Test F rating (% disease control) (Septoria nodorum; [4]): 0%
Test H rating (% disease control) ([1]; curative spray, 0 = no control): 0%
Test J rating (% disease control) [2, 5]: 87%
Test G rating (% disease control) (Septoria tritici; [5]): 95%
Test C rating (% disease control) (Alternaria solani; [5]): 88%
Test B rating (% disease control) (Botrytis cinerea; [5]): 99%
Test I rating (% disease control) [3, 5]: 25%

Cc1ncc(Nc2c(-c3ccc(F)cc3Cl)c(C)nn2C)cn1 [compound 269]
Test F rating (% disease control) (Septoria nodorum; [6]): 0%
Test H rating (% disease control) [1, 7]: 8%
Test J rating (% disease control) [2, 8]: 0%
Test G rating (% disease control) (Septoria tritici; [8]): 67%
Test C rating (% disease control) (Alternaria solani; [8]): 0%
Test B rating (% disease control) (Botrytis cinerea; [8]): 80%
Test I rating (% disease control) [3, 9]: 0%

Cc1nn(C)c(Oc2c(F)cc(C#N)cc2F)c1-c1ccccc1Br [compound 272]
Test F rating (% disease control) (Septoria nodorum; [6]): 99%
Test H rating (% disease control) [1, 7]: 0%
Test J rating (% disease control) [2, 8]: 99%
Test G rating (% disease control) (Septoria tritici; [8]): 99%
Test C rating (% disease control) (Alternaria solani; [8]): 97%
Test B rating (% disease control) (Botrytis cinerea; [8]): 100%
Test I rating (% disease control) [3, 9]: 99%

Cc1nn(C)c(Nc2c(F)cc(F)cc2F)c1-c1c(F)cccc1Cl [compound 191]
Test F rating (% disease control) (Septoria nodorum; [6]): 0%
Test H rating (% disease control) [1, 7]: 0%
Test J rating (% disease control) [2, 8]: 99%
Test G rating (% disease control) (Septoria tritici; [8]): 100%
Test C rating (% disease control) (Alternaria solani; [8]): 100%
Test B rating (% disease control) (Botrytis cinerea; [8]): 98%
Test I rating (% disease control) [3, 9]: 97%

Cc1nn(C)c(Nc2ccc(F)cc2)c1-c1cccc(F)c1F [compound 205]
Test F rating (% disease control) (Septoria nodorum; [6]): 0%
Test H rating (% disease control) [1, 7]: 0%
Test J rating (% disease control) [2, 8]: 100%
Test G rating (% disease control) (Septoria tritici; [8]): 99%
Test C rating (% disease control) (Alternaria solani; [8]): 17%
Test B rating (% disease control) (Botrytis cinerea; [8]): 100%
Test I rating (% disease control) [3, 9]: 91%

COc1cc(F)c(Nc2c(-c3ccc(F)c(F)c3)c(C)nn2C)c(F)c1 [Compound 36, N-(2,6-difluoro-4-methoxyphenyl)-4-(3,4-difluorophenyl)-1,3-dimethyl-1H-pyrazol-5-amine]
pest or weed control at 200 µg/mL (Septoria nodorum; [10]): 0%
pest or weed control at 200 µg/mL [1, 11]: 0%
pest or weed control at 200 µg/mL [2, 12]: 98%
pest or weed control at 200 µg/mL (Septoria tritici; [13]): 96%
pest or weed control at 200 µg/mL (Alternaria solani; [14]): 0%
pest or weed control at 200 µg/mL (Botrytis cinerea; [15]): 100%
pest or weed control at 200 µg/mL [3, 16]: 96%

Cc1nn(C)c(Nc2ccc(F)cc2F)c1-c1ccc(Cl)cc1Cl [Compound 69, 4-(2,4-Dichlorophenyl)-N-(2,4-difluorophenyl)-1,3-dimethyl-1H-pyrazol-5-amine]
pest or weed control at 200 µg/mL (Septoria nodorum; [10]): 60%
pest or weed control at 200 µg/mL [1, 11]: 91%
pest or weed control at 200 µg/mL [2, 12]: 100%
pest or weed control at 200 µg/mL (Septoria tritici; [13]): 99%
pest or weed control at 200 µg/mL (Alternaria solani; [14]): 73%
pest or weed control at 200 µg/mL (Botrytis cinerea; [15]): 100%
pest or weed control at 200 µg/mL [3, 16]: 99%

Cc1nn(C)c(Oc2ccc(C#N)cc2Cl)c1-c1c(F)cccc1F [Compound 358, 3-chloro-4-[[4-(2,6-difluorophenyl)-1,3-dimethyl-1H-pyrazol-5-yl]oxy]benzonitrile]
pest or weed control at 200 µg/mL (Septoria nodorum; read-out: Test F disease control rating): 0%
pest or weed control at 200 µg/mL ([1]; read-out: Test H disease control rating): 0%
pest or weed control at 200 µg/mL ([2]; read-out: Test J disease control rating): 97%
pest or weed control at 200 µg/mL (Septoria tritici; read-out: Test G disease control rating): 100%
pest or weed control at 200 µg/mL (Alternaria solani; read-out: Test C disease control rating): 0%
pest or weed control at 200 µg/mL (Botrytis cinerea; read-out: Test B disease control rating): 99%
pest or weed control at 200 µg/mL ([3]; read-out: Test I disease control rating): 97%

COc1cc(F)c(-c2c(C)nn(C)c2Nc2ccc(C#N)cc2Cl)c(F)c1 [compound 117]
Test F rating (% disease control) (Septoria nodorum; [4]): 82%
Test H rating (% disease control) ([1]; curative spray, 0 = no control): 11%
Test J rating (% disease control) [2, 5]: 97%
Test G rating (% disease control) (Septoria tritici; [5]): 100%
Test C rating (% disease control) (Alternaria solani; [5]): 97%
Test B rating (% disease control) (Botrytis cinerea; [5]): 99%
Test I rating (% disease control) [3, 5]: 98%

Cc1nn(C)c(Nc2ccc(F)cc2F)c1-c1cccc(F)c1F [compound 202]
Test F rating (% disease control) (Septoria nodorum; [6]): 0%
Test H rating (% disease control) [1, 7]: 0%
Test J rating (% disease control) [2, 8]: 99%
Test G rating (% disease control) (Septoria tritici; [8]): 99%
Test C rating (% disease control) (Alternaria solani; [8]): 0%
Test B rating (% disease control) (Botrytis cinerea; [8]): 99%
Test I rating (% disease control) [3, 9]: 28%
